# Where “and” joins values, the source holds several entries; their conditions need not be identical. Identical values can stand only once. Entries after “also recorded” stand apart in the source; their conditions may differ. Like-named read-outs stand apart in the source and are kept apart here.
# How the values were obtained:
# [1] = test system: M. tuberculosis H37Rv; test: Microplate Alamar Blue assay (MABA) MIC; assay type: cell-based; details: Mycobacterium tuberculosis
# [2] = test system: M. tuberculosis TN587; test: Microplate Alamar Blue assay (MABA) MIC; assay type: cell-based; details: Mycobacterium tuberculosis
# [3] = test system: M. tuberculosis NHN382; test: Microplate Alamar Blue assay (MABA) MIC; assay type: cell-based; details: Mycobacterium tuberculosis
# [4] = test system: M. tuberculosis W210; test: Microplate Alamar Blue assay (MABA) MIC; assay type: cell-based; details: Mycobacterium tuberculosis
# [5] = test system: M. tuberculosis NHN20; test: Microplate Alamar Blue assay (MABA) MIC; assay type: cell-based; details: Mycobacterium tuberculosis
# [6] = target: T1, Mtb FtsZ (Mycobacterium tuberculosis, UniProt P9WN95); test: Transmission electron microscopy of FtsZ polymerization; assay type: biochemical, M. tuberculosis; details: FtsZ 5 µM, GTP 25 µM
# [7] = test system: M. tuberculosis H37Rv; test: Time-dose growth (OD600 nm) and kill (CFU) curves; assay type: cell-based, Mycobacterium tuberculosis
# [8] = test system: M. tuberculosis strain Erdman; test: Modified rapid (acute) murine model of infection; assay type: in vivo, Mycobacterium tuberculosis
# [9] = 100 ng/mL
# Procedure: (§1) Blood was collected from animals using lithium heparin as anticoagulant, in the Animal Research & Welfare Domain at Disposition, Safety & Animal Research Montpellier (371 rue du Pr. J. Blayac, 34184 Montpellier Cedex 04, France) or vendors such as Charles River. Human plasma using lithium heparin as anticoagulant was provided by the EFS (Etablissement Français du Sang) of Montpellier, France. Plasma was spiked with the compound in order to obtain a final drug concentration of 100 ng/mL (expressed as non-salified compound). The spiked plasma (dedicated to C1h and C4h) was then incubated at 37°C for 1 h and 4 h. Plasma samples were analyzed by LC-MS/MS following protein precipitation. The limit of quantification for compounds was 10 ng/mL. Chromatographic conditions for LC analysis: 10 µL of the sample was injected to Luna Phenomenex C8 (50 mm×2.0 mm, 3 µm), Solvent A: ammonium acetate (0.15 g)/formic acid (2 mL)/HPLC water up to 1000 mL. […] MS/MS condition used for detection: Finnigan TSQ Quantum disco instrument, Excalibur version 2.0 acquisition system, ESI positive ion ionization mode. The mean percent of difference between C1h or C4h and C0 concentrations was calculated.
# M%D (%) = 100 × [(C1h or C4h)–C0]/C0
# (§2) The compounds were considered as stable if the mean percent of difference between C4h and C0 concentrations was less than 20%.
# [10] = test system: M. tuberculosis H37Rv; details: lead selection from SAR studies; cited from earlier work
# [11] = 100 ng/mL; remark: listed apart in the source
# Procedure: as §1
# M%D (%) = 100 × [(C1h or C4h)–C0]/C0
# as §2
# [12] = 5 µM, 1 mg/mL microsomal protein, NADPH, 20 min
# Procedure: (§3) The flavin-containing monooxygenases (FMO)-dependent reactions were run in the presence of bovine serum albumin (BSA, 0.1%) for the duration of 0 and 20 min (with or without microsomal proteins and/or cofactors). […] Following protein precipitation with acetonitrile and their removal by centrifugation, supernatant fluids were analyzed by LC/MS-MS.
# (§4) Thermo Finnigan TSQ Quantum Ultra instrument, ESI positive ion ionization mode. Each compound is studied in duplicates. Results are expressed in percentage of lability (or total metabolism).
# (§5) Total metabolism = [1– (UC1 Peak Area)/(UC2 Peak Area)] × 100.
# (§6) UCn = Unchanged Compound in condition n;
# (§7) n = 1: incubation in the presence of NADPH cofactor after T = 20 min.
# (§8) n = 2: incubation without cofactor at T = 0 min.
# [13] = 5 µM, 1 mg/mL microsomal protein, NADPH, 20 min; remark: listed apart in the source
# Procedure: as §3, §4, §5, §6, §7, §8
# [14] = test system: M. tuberculosis clinical isolates; details: determined and reported; cited from earlier work
# [15] = target: T1, Mtb FtsZ; details: earlier work of the authors; no reference given; cited from earlier work
# T1 sequence (P9WN95 whole entry, looked up): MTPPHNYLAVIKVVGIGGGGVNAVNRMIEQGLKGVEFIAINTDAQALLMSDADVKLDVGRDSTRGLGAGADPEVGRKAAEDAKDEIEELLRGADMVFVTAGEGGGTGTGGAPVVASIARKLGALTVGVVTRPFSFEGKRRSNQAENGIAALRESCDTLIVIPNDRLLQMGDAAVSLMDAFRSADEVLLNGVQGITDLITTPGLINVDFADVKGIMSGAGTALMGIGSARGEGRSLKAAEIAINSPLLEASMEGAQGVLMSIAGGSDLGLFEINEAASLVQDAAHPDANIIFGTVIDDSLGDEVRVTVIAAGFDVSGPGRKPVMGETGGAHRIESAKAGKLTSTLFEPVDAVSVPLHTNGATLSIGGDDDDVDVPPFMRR
smiles,measurement,setting,value
CN(C)c1cc2[nH]c(C3CCCCC3)nc2cc1NC(=O)c1ccc(OC(F)(F)F)cc1 [SB-P17G-A20],MIC,[1],0.16 µg/mL
same,MIC,[2],0.16 µg/mL
same,MIC,[3],0.16 µg/mL
same,MIC,[4],0.16 µg/mL
same,MIC,[5],0.16 µg/mL
same,Effect on FtsZ polymers (TEM),[6]; 40 µM compound,"the length, density and aggregation was visibly reduced"
same,Effect on FtsZ polymers (TEM),[6]; 80 µM compound,dispersed FtsZ polymers are observed
same,Concentration that steadily reduced bacterial viability,"[7]; CFU plating, day 0, 2, 4, 6",0.08 µg/mL
same,Killing characteristics,[7]; growth curves at various concentrations,concentration-dependent inhibitor with sub-MIC inhibitory characteristics
same,Lowest concentration at which bacterial growth was reduced,[7]; in some cases,0.125 X MIC
same,Reduction in the bacterial load in the lungs,"[8]; C57BL/6-Ifngtm1ts mice, 50 mg/kg IP bid, days 5 to 14 post-infection, vs infected controls",1.73±0.24 log10 CFU
same,Reduction in the bacterial load in the spleen,"[8]; C57BL/6-Ifngtm1ts mice, 50 mg/kg IP bid, days 5 to 14 post-infection, vs infected controls, 50 mg/kg",2.68 log10 CFU and 2.68±0.48 log10 CFU
same,Plasma Stability (% hydrolysis) Human (4 h),[9],0.1%
same,MIC,[10],0.16 µg/mL
same,Plasma Stability (% hydrolysis) Mouse (4 h),[11],24.4%
same,Liver Microsome Lability Human,[12],39%
same,Liver Microsome Lability Mouse,[13],45%
"NNC(=O)c1ccncc1 [INH, isoniazid, reference compound]",CFU counts in the lung and spleen,"[8]; IP 20 mg/kg qd, control drug",below the level of detection
CCCCOC(=O)Nc1cc2nc(C3CCCCC3)[nH]c2cc1N(C)C [SB-P17G-C2],Reduction in the bacterial load in the lungs or spleen,"[8]; acute mouse model, data not shown",no significant reduction; also recorded: did not significantly reduce the bacterial load in the lungs or spleen
same,Plasma Stability (% hydrolysis) Human (4 h),[9],6.1%
same,MIC,[10],0.06 µg/mL
same,Liver Microsome Lability Human,[12],90%
same,Liver Microsome Lability Mouse,[13],96%
same,MIC values against clinical isolates,[14],0.06 to 0.13 µg/mL
CCCCOC(=O)Nc1cc2nc(C3CCCCC3)[nH]c2cc1N(CC)CC [SB-P3G2],Inhibition of FtsZ polymerization,[15],inhibit FtsZ polymerization in a dose dependent manner

# Source: PMC3988029, “A Trisubstituted Benzimidazole Cell Division Inhibitor with Efficacy against Mycobacterium tuberculosis” (PLoS ONE, 2014)
